Earlier results on 3 compounds are cited in patent publication US6703346B2, “Herbicide compositions comprising imidazolinone acid, methods of preparation, and methods of use” (Platte Chemical Co., priority 2001, dated 2004).

The conditions of the series: general statement, no measurement described.
For `CC(C)C1(C)N=C(c2nc3ccccc3cc2C(=O)O)NC1=O` (stereo not drawn) [imazaquin], the pKa result is listed as “approximately 3.8”.

Consider `CCc1cnc(C2=NC(C)(C(C)C)C(=O)N2)c(C(=O)O)c1` (stereo not drawn) [imazethapyr], for which the pKa result is “approximately 3.9”.

As to imazamethbenz, the pKa result is “approximately 2.9”.
